Assay results taken from PMC12610274, “Identification of Marrubiin as a Cathepsin C Inhibitor for Treating Rheumatoid Arthritis” (Molecules, 2025).

Experiments:
Cat G [1] = assay: NSPs activity in U937 cells after 5 days of treatment, Cat G; type: cell-based, human; conditions: U937, 10 μM
Procedure: (§1) U937 cells in the logarithmic growth phase were collected and equally divided into six portions. Four of these portions were treated with DMSO solutions of the test compound at varying concentrations to achieve final concentrations of 1.25, 2.5, 5, and 10 μM, respectively. An equal volume of DMSO was added to one portion as a blank control, while another portion treated with a DMSO solution of AZD7986 served as a positive control. The cells were cultured under standard U937 conditions for 5 consecutive days, with daily medium changes and fresh compound treatments administered using the same protocol. Following 5 days of treatment, cells were harvested, washed twice thoroughly with phosphate-buffered saline, and lysed in phosphate-buffered saline containing 1% Triton X-100. The lysates were centrifuged to collect the supernatant, and protein concentrations were determined as previously described to ensure equal total protein loading across all samples. The prepared samples were stored at −20 °C until further analysis. Different assay buffers were prepared for diluting samples and measuring the activities of specific NSPs: a buffer containing 50 mM Tris and 750 mM NaCl (pH 7.4) was used for NE and PR3; a buffer containing 50 mM Tris, 750 mM NaCl, 5 mM EDTA (pH 7.4) was used for Cat G; and a buffer containing 25 mM MES, 50 mM NaCl, 5 mM DTT (pH 6.0) was used for CTSC. […]

CTSC [2] = biological target: T1, CTSC (Mus musculus, UniProt P97821); assay: CTSC activity in blood and bone marrow of mice; type: in vivo, C57BL/6 mice; conditions: 30 mg/kg daily gavage, 7 days
T1 construct: from tissue; host or cells: mouse blood and bone marrow lysates
Procedure: (§2) A total of 25 C57BL/6 mice (6–8 weeks old, weighing approximately 20 g, with equal numbers of males and females) were randomly divided into five groups. Mice in the compound-treated groups were orally administered the compound once daily at doses of 0.3, 3, and 30 mg/kg for 7 consecutive days. […] Mice in the normal group were given an equal volume of normal saline at the same time points. The body weight, death rate, and behavior were observed and recorded daily for one week. After 7 days, bone marrow and blood samples were collected from the mice and lysed using 8% Triton X-100 buffer. The lysates were stored at −20 °C until testing. The activity assays for CTSC and NSPs were performed as described above. The mice were anesthetized and the tissues were taken for H&E staining.

AIA model = assay: Adjuvant-induced arthritis (AIA) model, disease severity; type: in vivo, Sprague-Dawley rats; conditions: rat AIA
Procedure: (§3) Thirty 4-week-old male Sprague-Dawley rats (weighing 120–130 g) were randomly divided into 6 groups (5 rats per group) after 1 week of adaptive feeding, namely the normal group, model group, low-dose experimental group (15 mg/kg), medium-dose experimental group (30 mg/kg), high-dose experimental group (60 mg/kg), and positive control group (30 mg/kg). Starting from Day 0 of the experiment, rats in the administration groups and model group were injected intradermally with 0.1 mL of CFA into the left hind paw to induce AIA, while rats in the normal group were injected intradermally with an equal volume (0.1 mL) of normal saline as a control. After 13 consecutive days of feeding, rats treated with CFA successfully developed typical AIA symptoms. […] During the experiment, the body weight, mental state, activity ability, hair color changes, and paw appearance changes of the rats were observed and recorded daily. In addition, on Day 0 of the experiment (baseline period), the basic paw volume of all rats was accurately measured using a plethysmometer, which served as a reference standard for subsequent evaluation of inflammation severity. From Day 13 to Day 28 of the experiment, the paw volume of the rats was measured repeatedly every 3 days. The degree of paw swelling was quantified by calculating the change in paw volume relative to the baseline. Meanwhile, the arthritis index score was calculated based on the range of paw redness and swelling, the severity of swelling, and the degree of limb movement limitation, so as to comprehensively evaluate the inflammatory state. On Day 28 of the experiment (the end of the administration cycle), blood samples were collected via abdominal aortic puncture. The blood samples were centrifuged at 3000 rpm for 20 min, and the upper serum was collected and stored at −20 °C for subsequent detection. The rats were then sacrificed, and their ankle joint tissues were harvested for subsequent pathological section observation and analysis. The cytokine levels in serum were measured. The activity detection of CTSC and NSPs was carried out according to the above methods.

[3] = Cytotoxicity assay, U937 cell line; type: cell-based; conditions: human, U937 cells
Procedure: (§4) RAW264.7 cells and U937 cells in the logarithmic growth phase were counted and diluted, and the concentrations of the single-cell suspensions of the two types of cells were adjusted to 5 × 10^4 cells/mL and 3 × 10^4 cells/mL, respectively. After thorough mixing, the cells were seeded into a 96-well plate, with 100 μL of cell suspension added to each well. Prepare the working solution of test compounds using the corresponding medium as the solvent, with the concentration of working solution being 2 times the final test concentration (2.5 μM, 5 μM, 10 μM, 20 μM, and 40 μM). Twenty-four hours after cell seeding, the compound working solutions were added to the compound test wells, and the same volume of medium was added to the negative control wells, followed by continuous incubation for another 24 h. Only the wells with the same volume but without cells served as the blank control group. The CellTiter-Lumi™ luminescent cell viability assay kit (Beyotime Biotechnology, Shanghai, China, C0065XL) was used to detect cell viability according to the standard operating procedures. Each group of tests was independently repeated at least 3 times, and IC50 values were calculated using SPSS 10.0.

NE [4] = assay: AIA model, serum NE activity; type: in vivo, Sprague-Dawley rats; conditions: rat AIA, 30 mg/kg gavage, 15 days
Procedure: as §3, with “Meanwhile, the arthritis index score was calculated based on the range of paw redness and swelling, the severity of swelling, and the degree of limb movement limitation, so as to comprehensively evaluate the inflammatory state. On Day 28 of the experiment (the end of the administration cycle), blood samples were collected via abdominal aortic puncture. The blood samples were centrifuged at 3000 rpm for 20 min, and the upper serum was collected and stored at −20 °C for subsequent detection. The rats were then sacrificed, and their ankle joint tissues were harvested for subsequent pathological section observation and analysis.” left out, “The activity detection of CTSC and NSPs was carried out according to the above methods.” left out

PR3 [5] = assay: NSPs activity in U937 cells after 5 days of treatment, PR3; type: cell-based, human; conditions: U937, 10 μM
Procedure: as §1

PR3 [6] = assay: AIA model, serum PR3 activity; type: in vivo, Sprague-Dawley rats; conditions: rat AIA, 30 mg/kg gavage, 15 days
Procedure: as §3, with “Meanwhile, the arthritis index score was calculated based on the range of paw redness and swelling, the severity of swelling, and the degree of limb movement limitation, so as to comprehensively evaluate the inflammatory state. On Day 28 of the experiment (the end of the administration cycle), blood samples were collected via abdominal aortic puncture. The blood samples were centrifuged at 3000 rpm for 20 min, and the upper serum was collected and stored at −20 °C for subsequent detection. The rats were then sacrificed, and their ankle joint tissues were harvested for subsequent pathological section observation and analysis.” left out, “The activity detection of CTSC and NSPs was carried out according to the above methods.” left out

NE [7] = assay: NE activity in blood and bone marrow of mice; type: in vivo, C57BL/6 mice; conditions: 30 mg/kg daily gavage, 7 days
Procedure: as §2

Cat G [8] = assay: Cat G activity in blood and bone marrow of mice; type: in vivo, C57BL/6 mice; conditions: 30 mg/kg daily gavage, 7 days
Procedure: as §2

[9] = Cytotoxicity assay, RAW264.7 cell line; type: cell-based; conditions: mouse, RAW264.7 cells
Procedure: as §4

CTSC [10] = biological target: T2, CTSC (Rattus norvegicus, UniProt P80067); assay: AIA model, serum CTSC activity; type: in vivo, Sprague-Dawley rats; conditions: 30 mg/kg gavage, 15 days
T2 construct: from tissue; host or cells: serum of Sprague-Dawley rats (AIA model)
Procedure: as §3, with “Meanwhile, the arthritis index score was calculated based on the range of paw redness and swelling, the severity of swelling, and the degree of limb movement limitation, so as to comprehensively evaluate the inflammatory state. On Day 28 of the experiment (the end of the administration cycle), blood samples were collected via abdominal aortic puncture. The blood samples were centrifuged at 3000 rpm for 20 min, and the upper serum was collected and stored at −20 °C for subsequent detection. The rats were then sacrificed, and their ankle joint tissues were harvested for subsequent pathological section observation and analysis.” left out, “The activity detection of CTSC and NSPs was carried out according to the above methods.” left out

NE [11] = assay: NSPs activity in U937 cells after 5 days of treatment, NE; type: cell-based, human; conditions: U937, 10 μM
Procedure: as §1

CTSC [12] = biological target: T3, CTSC (Homo sapiens, UniProt P53634); assay: CTSC activity in U937 cells after 5 days of treatment; type: cell-based; design: endogenous in cells; host or cells: U937; conditions: U937, 5 days, marrubiin and AZD7986 at the same concentration
Procedure: as §1
Target sequence in this assay (P53634 25-463): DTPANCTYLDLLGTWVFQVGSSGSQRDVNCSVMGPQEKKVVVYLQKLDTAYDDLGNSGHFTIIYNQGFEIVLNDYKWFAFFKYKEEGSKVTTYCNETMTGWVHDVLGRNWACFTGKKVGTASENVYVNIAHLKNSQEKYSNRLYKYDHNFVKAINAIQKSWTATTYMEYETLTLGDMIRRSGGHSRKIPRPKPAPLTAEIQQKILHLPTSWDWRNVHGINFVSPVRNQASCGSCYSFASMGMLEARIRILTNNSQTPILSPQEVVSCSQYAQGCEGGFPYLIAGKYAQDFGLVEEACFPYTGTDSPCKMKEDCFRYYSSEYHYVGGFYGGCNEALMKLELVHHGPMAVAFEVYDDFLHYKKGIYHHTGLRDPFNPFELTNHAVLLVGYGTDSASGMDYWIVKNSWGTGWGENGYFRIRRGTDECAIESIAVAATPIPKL

Cat G [13] = assay: AIA model, serum Cat G activity; type: in vivo, Sprague-Dawley rats; conditions: rat AIA, 30 mg/kg gavage, 15 days
Procedure: as §3, with “Meanwhile, the arthritis index score was calculated based on the range of paw redness and swelling, the severity of swelling, and the degree of limb movement limitation, so as to comprehensively evaluate the inflammatory state. On Day 28 of the experiment (the end of the administration cycle), blood samples were collected via abdominal aortic puncture. The blood samples were centrifuged at 3000 rpm for 20 min, and the upper serum was collected and stored at −20 °C for subsequent detection. The rats were then sacrificed, and their ankle joint tissues were harvested for subsequent pathological section observation and analysis.” left out, “The activity detection of CTSC and NSPs was carried out according to the above methods.” left out

PR3 [14] = assay: PR3 activity in blood and bone marrow of mice; type: in vivo, C57BL/6 mice; conditions: 30 mg/kg daily gavage, 7 days
Procedure: as §2

CTSC [15] = biological target: T3, CTSC; assay: Human recombinant CTSC isolated enzyme assay; type: biochemical; design: purchased R&D Systems
Procedure: Both recombinant CTSL and CTSC for in vitro cell-free-based enzymatic activity assay can be purchased from R&D Systems (Minneapolis, MN, USA), a biotechnology company. According to the standardized procedures and material ratios provided by R&D Systems, prepare the activation solution (25 mM MES + 5 mM DTT, pH 6.0) and the assay solution (25 mM MES + 50 mM NaCl + 5 mM DTT, pH 6.0) in advance for later use. Dilute the detection substrate H-Gly-Arg-AMC to a 200 µM solution with the assay solution for standby. Prepare the working solution of compounds to be tested using the assay solution, with the concentration of working solution being 10 times the final test concentration. Dilute CTSC and CTSL, respectively, with cold activation solution. Thoroughly mix the two activation solutions containing the proteins to achieve final concentrations of 300 nM for CTSL and 440 nM for CTSC. After co-incubation for 1 h, the activated CTSC treated with CTSL can be used for the enzymatic activity inhibition efficacy test of compounds. Dilute the activated CTSC to 4.4 nM with cold assay buffer. Incubate 4 μL of the activated CTSC with 1 μL of the compound working solution (test group) or 1 μL of blank assay solution (control group) at room temperature for 3 h. Then, add 5 μL of the detection substrate to achieve a final concentration of 100 μM. Mix 5 µL each of the assay solution and the substrate solution as the blank group. After 1 h, the absorbance of detection substrate was measured using a multifunctional microplate reader at excitation/emission wavelengths of 380 nm/460 nm. The inhibitory efficacy of molecules on enzyme activity was calculated based on the absorbance difference between test group and control group. […] Each group of tests mentioned above was independently repeated at least 3 times, and IC50 values were calculated using SPSS 10.0.
Target sequence in this assay (P53634 25-134 limits assumed): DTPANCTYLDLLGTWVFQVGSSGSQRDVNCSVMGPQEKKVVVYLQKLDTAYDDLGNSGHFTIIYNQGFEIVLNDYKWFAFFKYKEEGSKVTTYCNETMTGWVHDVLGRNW
Target sequence in this assay (P53634 231-394 limits assumed): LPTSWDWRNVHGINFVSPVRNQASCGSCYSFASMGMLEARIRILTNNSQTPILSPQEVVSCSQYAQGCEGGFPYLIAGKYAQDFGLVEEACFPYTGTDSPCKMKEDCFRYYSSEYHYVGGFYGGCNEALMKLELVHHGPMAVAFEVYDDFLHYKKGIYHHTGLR
Target sequence in this assay (P53634 395-463 limits assumed): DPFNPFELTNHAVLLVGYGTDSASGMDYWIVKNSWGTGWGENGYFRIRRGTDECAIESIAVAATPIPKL

intracellular CTSC = biological target: T4, intracellular CTSC (Homo sapiens, UniProt P53634); assay: CTSC cell-based assay using the U937 cell line; conditions: read-out: Cell-Based Enz (IC50: nM)
T4 construct: endogenous in cells; host or cells: U937
Procedure: Cell-based CTSC enzymatic activity assays were performed in 96-well clear-bottom black microplates. […] The detection substrate, H-Gly-Arg-AFC, was diluted to 100 µM in serum-free medium and stored for later use. U937 cells in the logarithmic growth phase were harvested, washed with PBS, and counted. A single-cell suspension was prepared at a density of 1.0 × 10^6 cells/mL using serum-free medium. 30 µL of cell suspension was seeded into each well of the 96-well plate. To the test wells, 10 µL of the compound working solution was added, while 10 µL of serum-free medium was added to the control wells. The plate was pre-incubated in a cell culture incubator at 37 °C for 3 h. Subsequently, 10 µL of H-Gly-Arg-AFC was added to initiate the enzymatic reaction, and the plate was further incubated at 37 °C for 1 h. Fluorescence measurements were performed using a multimode microplate reader at excitation/emission wavelengths of 400/505 nm. Each group of tests was independently repeated at least 3 times, and IC50 values were calculated using SPSS 10.0.

T1 sequence (P97821 25-462): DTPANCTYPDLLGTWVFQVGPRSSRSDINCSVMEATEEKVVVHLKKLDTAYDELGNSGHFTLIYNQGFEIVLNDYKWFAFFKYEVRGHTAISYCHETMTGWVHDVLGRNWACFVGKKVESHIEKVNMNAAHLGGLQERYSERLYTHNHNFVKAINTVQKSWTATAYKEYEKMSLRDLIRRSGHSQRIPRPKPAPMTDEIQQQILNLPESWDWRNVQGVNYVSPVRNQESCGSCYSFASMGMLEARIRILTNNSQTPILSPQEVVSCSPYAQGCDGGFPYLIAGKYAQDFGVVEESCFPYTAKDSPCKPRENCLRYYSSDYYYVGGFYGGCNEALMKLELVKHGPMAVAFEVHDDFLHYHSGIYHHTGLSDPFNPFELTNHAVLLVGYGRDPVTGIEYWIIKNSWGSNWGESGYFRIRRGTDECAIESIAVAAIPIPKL
T4 sequence (P53634 25-463): as the sequence (P53634 25-463) above
T2 sequence (P80067 25-462): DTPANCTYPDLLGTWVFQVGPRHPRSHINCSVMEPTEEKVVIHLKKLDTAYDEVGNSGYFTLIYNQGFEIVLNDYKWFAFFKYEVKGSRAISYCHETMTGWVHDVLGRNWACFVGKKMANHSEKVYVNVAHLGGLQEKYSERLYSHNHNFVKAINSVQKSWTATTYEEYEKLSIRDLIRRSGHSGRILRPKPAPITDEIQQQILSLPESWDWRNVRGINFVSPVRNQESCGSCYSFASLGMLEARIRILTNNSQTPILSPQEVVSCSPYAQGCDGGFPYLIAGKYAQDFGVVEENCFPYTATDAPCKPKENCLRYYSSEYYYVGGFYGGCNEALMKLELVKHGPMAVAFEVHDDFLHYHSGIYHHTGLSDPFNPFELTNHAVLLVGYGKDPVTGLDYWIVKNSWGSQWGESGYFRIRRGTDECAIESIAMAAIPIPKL

## Cn1c(=O)oc2ccc(-c3ccc(C[C@@H](C#N)NC(=O)[C@@H]4CNCCCO4)cc3)cc21 [AZD7986, reference compound]
Cat G [1]
  Cat G activity, % of DMSO group: 12.7%
CTSC [2]; blood
  remaining activity rate of CTSC: ~18.3%
CTSC [2]; bone marrow
  remaining activity rate of CTSC: approximately 10.6%
AIA model; 30 mg/kg
  histopathology of ankle joints (H&E, Safranin O/Fast Green): reduced the histopathological statement
AIA model; 30 mg/kg gavage, from day 16 onwards
  clinical score vs AIA model group: significantly lower than those of AIA model group
AIA model; 30 mg/kg, days 16 to 28
  volume and thickness of inflamed paws: continuous reduction in volume and a gradual decrease in thickness
AIA model; 30 mg/kg, from day 16 onwards
  body weight recovery: most significant weight recovery effects
[3]
  IC50 at 24 h: > 10 µM
NE [4]
  serum NE activity, % of control group: ~30%
PR3 [5]
  PR3 activity, % of DMSO group: 8.1%
PR3 [6]
  serum PR3 activity, % of control group: ~40%
NE [7]; blood
  remaining activity rate of NE: ~8.1%
NE [7]; bone marrow
  remaining activity rate of NE: ~11.7%
Cat G [8]; blood
  remaining activity rate of Cat G: ~35.2%
Cat G [8]; bone marrow
  remaining activity rate of Cat G: ~30.5%
[9]
  IC50 at 24 h: > 10 µM
CTSC [10]
  serum CTSC activity, % of control group: approximately 35%
NE [11]
  NE activity, % of DMSO group: 5.1%
CTSC [12]
  residual CTSC activity: less than 8%
Cat G [13]
  serum Cat G activity, % of control group: approximately 58%
PR3 [14]; blood
  remaining activity rate of PR3: ~10.3%
PR3 [14]; bone marrow
  remaining activity rate of PR3: ~15.8%

## CC(=O)OCC1=CO[C@@H](OC(=O)CC(C)C)[C@H]2C1=C[C@H](OC(=O)CC(C)(C)OC(C)=O)[C@]21CO1 [Acevaltrate, acevaltrate]
CTSC [15]; human recombinant CTSC, cell-free, 12-point dose-response, read-out: CTSC Enz (IC50: nM)
  IC50: 1053 ± 2.2 nM
[3]
  IC50 at 24 h: > 10 µM
[9]
  IC50 at 24 h: > 10 µM
Intracellular CTSC
  IC50: 702.1 ± 3.2 nM

## N[C@@H]1CON=C1O [D-cycloserine]
CTSC [15]; result in words
  enzymatic inhibitory activity against CTSC: no enzymatic inhibitory activity at all
